Results published in US20040254178A1, “Substituted heterocyclic compounds and methods of use” (Amgen Inc., priority 2003, published 2004).

System: LPS induced TNF release
Test: Lipopolysaccharide-Activated THP1 Cell TNF Production Assay
Type: cell-based
Details: Homo sapiens, THP-1, THP1 cells, 3 h at 37° C., secreted TNF-α read by ECL
Description: Lipopolysaccharide-Activated THP1 Cell TNF Production Assay
THP1 cells are resuspended in fresh THP1 media (RPMI 1640, 10% heat-inactivated FBS, 1XPGS, 1XNEAA, plus 30 μM βME) at a concentration of 1E6/mL. One hundred microliters of cells per well are plated in a polystyrene 96-well tissue culture. One microgram per mL of bacterial LPS is prepared in THP1 media and is transferred to the wells. Test compounds are dissolved in 100% DMSO and are serially diluted 3 fold in a polypropylene 96-well microtiter plate (drug plate). HI control and LO control wells contain only DMSO. One microliter of test compound from the drug plate followed by 10 μL of LPS are transferred to the cell plate. The treated cells are induced to synthesize and secrete TNF-α at 37° C. for 3 h. Forty microliters of conditioned media are transferred to a 96-well polypropylene plate containing 110 μL of ECL buffer (50 mM Tris-HCl pH 8.0, 100 mM NaCl, 0.05% Tween 20, 0.05% NaN3 and 1% FBS) supplemented with 0.44 nM MAB610 monoclonal Ab (R&D Systems), 0.34 nM ruthenylated AF210NA polyclonal Ab (R&D Systems) and 44 μg/mL sheep anti-mouse M280 Dynabeads (Dynal). After a 2 h incubation at room temperature with shaking, the reaction is read on the ECL M8 Instrument (IGEN Inc.). A low voltage is applied to the ruthenylated TNF-α immune complexes, which in the presence of TPA (the active component in Origlo), results in a cyclical redox reaction generating light at […]. The amount of secreted TNF-α in the presence of compound compared with that in the presence of DMSO vehicle alone (HI control) is calculated using the formula: % control (POC)=(cpd−average LO)/(average HI−average LO)*100. Data (consisting of POC and inhibitor concentration in μM) is fitted to a 4-parameter equation (y=A+((B−A)/(1+((x/C)^D))), where A is the minimum y (POC) value, B is the maximum y (POC), C is the x (cpd concentration) at the point of inflection and D is the slope factor) using a Levenburg-Marquardt non-linear regression algorithm.

IC50, ≤ 20 µM:
Cc1c(C2CCNCC2)nnc(-c2cccc(C(F)(F)F)c2)c1-c1ccnc(NC(C)c2ccccc2)n1 (stereo not drawn) [{4-[5-Methyl-6-piperidin-4-yl-3-(3-trifluoromethyl-phenyl)-pyridazin-4-yl]-pyrimidin-2-yl}-(1-phenyl-ethyl)-amine], Cc1c(C2CCN(C(=O)[C@@H](C)O)CC2)nnc(-c2cccc(C(F)(F)F)c2)c1-c1ccnc(NC(C)c2ccccc2)n1 (stereo in doubt) [2-Hydroxy-1-{4-[4-methyl-5-[2-(1-phenyl-ethylamino)-pyrimidin-4-yl]-6-(3-trifluoromethyl-phenyl)-pyridazin-3-yl]-piperidin-1-yl}-propan-1-one], Cc1c(C2CCN(C(=O)OCc3ccccc3)CC2)nnc(-c2cccc(C(F)(F)F)c2)c1-c1ccnc(NC(C)c2ccccc2)n1 (stereo not drawn) [4-[4-Methyl-5-[2-(1-phenyl-ethylamino)-pyrimidin-4-yl]-6-(3-trifluoromethylphenyl)-pyridazin-3-yl]-piperidine-1-carboxylic acid benzyl ester]
